Earlier results as cited in patent US20160374909A9, “Treating Cariogenic diseased oral biofilm with elevated pH” (Dental Alliance Holdings, LLC dba Oral Bio Tech, priority 2006, published 2016).

What was measured:
Mutans streptococci = details: rinse or varnish
Lactobacilli = details: rinse or varnish

In the case of [H]/N=C(\N/C(=N/[H])NCCCCCCNC(=N)NC(=N)Nc1ccc(Cl)cc1)Nc1ccc(Cl)cc1 [chlorhexidine], the “effect against Mutans streptococci” value (Mutans streptococci) is given as “effective” and the “effect against Lactobacilli” value (Lactobacilli) is given as “no effect”.
